How the values were obtained:
[1] = system: Zucker fatty (fa/fa) rats; test: Urinary total protein (Bio-Rad dye-binding assay, 24 h urine) in 9 month Zucker rat study; format: in vivo; conditions: Zucker fatty rats; for URINARY PROTEIN CONCENTRATION: mean ± SEM
Experimental: A second study was performed in Zucker rats over a period of 9 months to investigate the longitudinal effects of the drug on systolic blood pressure and various indices of renal function, two of which are exemplified here. […] A third group of Zucker fatty rats and a further group of lean rats were given diet alone throughout the period of study. After dosing with the test compound, at monthly intervals measurements were made of systolic blood pressure, urinary total protein and urinary N-acetyl β-D-glucosaminidase (NAG) activity. Twenty-four hour urine collections, made in metabolism cages, were aliquoted and frozen at −70° C. until required for assay. Urinary protein concentration was measured using the Bio-Rad protein assay as modified for use in a 96-well microtitre plate. The assay is a dye-binding assay based on the differential colour change of a dye in response to various concentrations of protein (Bradford, Anal. Biochem., 72, 248, 1976). After a period of incubation with Dye Reagent, diluted urine samples are read at an optical density of 595 nm using a Molecular Devices multiplate reader.

[2] = system: Zucker fatty (fa/fa) rats; test: Systolic blood pressure (tail cuff) in 9 month Zucker rat study; format: in vivo; conditions: for SYSTOLIC BLOOD PRESSURE: Zucker fatty rats
Experimental: A second study was performed in Zucker rats over a period of 9 months to investigate the longitudinal effects of the drug on systolic blood pressure and various indices of renal function, two of which are exemplified here. In one arm of the study, the drug was given in the diet (50 μmole/kg of diet) from aged 6-7 weeks in Zucker fatty (fa/fa) rats, whilst in a second arm of the study, drug treatment as above was delayed until proteinuria had become established after 4 months, indicative of structural damage already present in the kidneys. A third group of Zucker fatty rats and a further group of lean rats were given diet alone throughout the period of study.
After dosing with the test compound, at monthly intervals measurements were made of systolic blood pressure, urinary total protein and urinary N-acetyl β-D-glucosaminidase (NAG) activity.
Rats were enclosed in custom-built restrainers and placed on a shelf in a warming cabinet, whose temperature was controlled at approximately 30° C. An inflatable cuff with integral pulse sensor was attached to the tail of each rat. After warming for 20-30 min the tail cuff was inflated and deflated automatically and a measurement of systolic blood pressure made using an IITC Non-Invasive Blood Pressure Monitor. This cycle was repeated several times for each rat until stable values of blood pressure were obtained.
In the tables below, results are given as mean values for the group ±the standard error of the mean. Results have been analysed by one way ANOVA and significant differences from the Zucker fatty rat control group have been indicated by an asterisk.

[3] = drug treatment commenced after proteinuria had become established

CN(CCOc1ccc(CC2SC(=O)NC2=O)cc1)c1ccccn1 (centres unmarked) [Test Compound, 5-[4-[2-(N-methyl-N-(2-pyridyl)amino)ethoxy]benzyl]thiazolidine-2,4-dione]
URINARY PROTEIN CONCENTRATION ([1]; 50 μmol/kg of diet from age 6-7 weeks (prior to renal complications), treatment duration 8 months): 2664 ± 370 µg/h
URINARY PROTEIN CONCENTRATION ([1]; 50 μmol/kg of diet from age 6-7 weeks (prior to renal complications), treatment duration 9 months): 3152 ± 515 µg/h
URINARY PROTEIN CONCENTRATION ([1]; 50 μmol/kg of diet started once renal complications established (after 4 months), treatment duration 0 months): 3520 ± 905 µg/h
URINARY PROTEIN CONCENTRATION ([1]; 50 μmol/kg of diet started once renal complications established (after 4 months), treatment duration 1 month): 3690 ± 386 µg/h
URINARY PROTEIN CONCENTRATION ([1]; 50 μmol/kg of diet started once renal complications established (after 4 months), treatment duration 2 months): 5330 ± 967 µg/h
URINARY PROTEIN CONCENTRATION ([1]; 50 μmol/kg of diet started once renal complications established (after 4 months), treatment duration 3 months): 6230 ± 835 µg/h
URINARY PROTEIN CONCENTRATION ([1]; 50 μmol/kg of diet started once renal complications established (after 4 months), treatment duration 4 months): 5380 ± 708 µg/h
URINARY PROTEIN CONCENTRATION ([1]; 50 μmol/kg of diet started once renal complications established (after 4 months), treatment duration 5 months): 7680 ± 825 µg/h
URINARY PROTEIN CONCENTRATION ([1]; 50 μmol/kg of diet started once renal complications established (after 4 months), treatment duration −1 month (before start of drug)): 958 ± 194 µg/h
URINARY PROTEIN CONCENTRATION ([1]; 50 μmol/kg of diet started once renal complications established (after 4 months), treatment duration −2 months (before start of drug)): 457 ± 21 µg/h
URINARY PROTEIN CONCENTRATION ([1]; 50 μmol/kg of diet started once renal complications established (after 4 months), treatment duration −3 months (before start of drug)): 347 ± 32 µg/h
URINARY PROTEIN CONCENTRATION ([1]; 50 μmol/kg of diet started once renal complications established (after 4 months), treatment duration −4 months (before start of drug)): 220 ± 13 µg/h
rate of increase in the urinary protein concentration [1, 3]: marked reduction
development of hypertension ([2]; Zucker fatty (fa/fa) rats treated from age 6-7 weeks for 9 months via the diet): prevented the development of hypertension
SYSTOLIC BLOOD PRESSURE ([2]; 50 μmol/kg of diet from age 6-7 weeks (prior to renal complications), treatment duration 0 months, mean ± SEM): 102 ± 3 mm Hg
SYSTOLIC BLOOD PRESSURE ([2]; 50 μmol/kg of diet from age 6-7 weeks (prior to renal complications), treatment duration 1 month, mean ± SEM): 110 ± 3 mm Hg
SYSTOLIC BLOOD PRESSURE ([2]; 50 μmol/kg of diet from age 6-7 weeks (prior to renal complications), treatment duration 2 months, mean ± SEM): 122 ± 4 mm Hg
SYSTOLIC BLOOD PRESSURE ([2]; 50 μmol/kg of diet from age 6-7 weeks (prior to renal complications), treatment duration 3 months, mean ± SEM): 122 ± 4 mm Hg
SYSTOLIC BLOOD PRESSURE ([2]; 50 μmol/kg of diet from age 6-7 weeks (prior to renal complications), treatment duration 4 months, mean ± SEM): 126 ± 6 mm Hg
SYSTOLIC BLOOD PRESSURE ([2]; 50 μmol/kg of diet from age 6-7 weeks (prior to renal complications), treatment duration 5 months, mean ± SEM): 131 ± 4 mm Hg
SYSTOLIC BLOOD PRESSURE ([2]; 50 μmol/kg of diet from age 6-7 weeks (prior to renal complications), treatment duration 6 months, mean ± SEM): 128 ± 3 mm Hg
SYSTOLIC BLOOD PRESSURE ([2]; 50 μmol/kg of diet from age 6-7 weeks (prior to renal complications), treatment duration 7 months, mean ± SEM): 125 ± 6 mm Hg
SYSTOLIC BLOOD PRESSURE ([2]; 50 μmol/kg of diet from age 6-7 weeks (prior to renal complications), treatment duration 8 months, mean ± SEM): 133 ± 5 mm Hg
SYSTOLIC BLOOD PRESSURE ([2]; 50 μmol/kg of diet from age 6-7 weeks (prior to renal complications), treatment duration 9 months, mean ± SEM): 143 ± 4 mm Hg
SYSTOLIC BLOOD PRESSURE ([2]; 50 μmol/kg of diet started once renal complications established (after 4 months), treatment duration 0 months, mean ± SEM): 146 ± 4 mm Hg
SYSTOLIC BLOOD PRESSURE ([2]; 50 μmol/kg of diet started once renal complications established (after 4 months), treatment duration 1 month, mean ± SEM): 140 ± 5 mm Hg
SYSTOLIC BLOOD PRESSURE ([2]; 50 μmol/kg of diet started once renal complications established (after 4 months), treatment duration 2 months, mean ± SEM): 134 ± 3 mm Hg
SYSTOLIC BLOOD PRESSURE ([2]; 50 μmol/kg of diet started once renal complications established (after 4 months), treatment duration 3 months, mean ± SEM): 144 ± 3 mm Hg
SYSTOLIC BLOOD PRESSURE ([2]; 50 μmol/kg of diet started once renal complications established (after 4 months), treatment duration 4 months, mean ± SEM): 139 ± 3 mm Hg
SYSTOLIC BLOOD PRESSURE ([2]; 50 μmol/kg of diet started once renal complications established (after 4 months), treatment duration 5 months, mean ± SEM): 146 ± 6 mm Hg
SYSTOLIC BLOOD PRESSURE ([2]; 50 μmol/kg of diet started once renal complications established (after 4 months), treatment duration −1 month (before start of drug), mean ± SEM): 141 ± 6 mm Hg
SYSTOLIC BLOOD PRESSURE ([2]; 50 μmol/kg of diet started once renal complications established (after 4 months), treatment duration −2 months (before start of drug), mean ± SEM): 138 ± 7 mm Hg
SYSTOLIC BLOOD PRESSURE ([2]; 50 μmol/kg of diet started once renal complications established (after 4 months), treatment duration −3 months (before start of drug), mean ± SEM): 123 ± 5 mm Hg
SYSTOLIC BLOOD PRESSURE ([2]; 50 μmol/kg of diet started once renal complications established (after 4 months), treatment duration −4 months (before start of drug), mean ± SEM): 106 ± 3 mm Hg
SYSTOLIC BLOOD PRESSURE [2, 3]: prevented from rising further

Reference: US20020115699A1, “Method for treating renal disease” (SmithKline Beecham p.l.c., priority 1994, published 2002)
